# Assay results reported in patent publication US11633411B2, “Methods of treating sepsis using anti-sepsis lipid A (ASLA) based therapeutics” (UNIVERSITY OF MARYLAND, BALTIMORE, priority 2016, dated 2023).
# Legend:
# C57BL6 mice = assay: Lethal endotoxic shock mouse model (25 mg/kg E. coli W3110 LPS i.p.); format: in vivo; conditions: for survival rate: preliminary experiment; for survival: repeat experiment
# Protocol: FIG. 4. ALSA 468 therapeutically rescues mice from lethal endotoxic shock. Lethal endotoxic shock was induced in 6-8 week old C57BL6 mice by injecting 25 mg/kg of E. coli LPS (strain W3110) i.p. […]
# To determine if ASLA 468 is capable of therapeutically rescuing mice that have received a lethal dose of pro-inflammatory Ec LPS, an in vivo mouse model of lethal endotoxin septic shock was used. Medzhitov, R. Nat. Rev. Immunol. 2001, 1, 135-145; Remick et al., Shock 2000, 13, 110. […] These pilot experiments provide a proof-of-principle that molecules found to compete with pro-inflammatory LPS in vitro are also capable of combating symptoms of septic shock in vivo. Future sepsis models to be used in this proposal will account for bacterial clearance after antibiotic treatment, in vivo location and concentration of LPS, and the structural relationship between ASLA and MD2/TLR4 complex that will address some shortcomings of previous anti-sepsis therapeutics, which is the scientific premise of this proposal. Raetz et al., Annu. Rev. Biochem. 2002, 71, 635-700; Raetz et al., J. Lipid Res. 2009, 50 Suppl, S103-108; Needham et al., S. Nature Reviews Microbiology 2013, 11, 467-481; Ernst et al., Science 1999, 286, 1561-1565; Miller et al., Nature Reviews Microbiology 2005, 3, 36-46; Siegemund et al., Nat Immunol 2012, 13, 1031-1033; Rietschel et al., FASEB J. 1994, 8, 217-225; van Lieshout et al., Inflamm. Res. 2014, 63, 927-933; Buras et al., Nat Rev Drug Discov 2005, 4, 854-865.
# Experimental Setup: Similarly to the non-lethal endotoxic shock model, in this in vivo model of lethal septic shock 6-week old C57BL6 mice were injected intraperitoneally with either 25 mg/kg E. coli (W3110) LPS, co-administered 25 mg/kg Ec LPS+10 mg/kg BECC468@26, or 25 mg/kg Ec LPS followed by 10 mg/kg BECC468@26 four hours later. Mice were monitored for survival every 12 hours post-injection. n=6 mice for each group, percent survival for each group is graphed.
# TLR4 [1] = biological target: T1, TLR4 (Homo sapiens, UniProt O00206+Q9Y6Y9); assay: NF-κB activation screen in THP-1 Dual reporter cells (SEAP under NFκB promoter); format: cell-based; set-up: host or cells: THP-1 Dual reporter cells
# Protocol: To identify the most successful ASLA candidates to be tested for efficacy in vivo, we will stimulate both human and mouse cell cultures with increasing concentrations (0.01 ng/ml, 0.1 ng/ml, 1 ng/ml, 10 ng/ml, 100 ng/ml) of novel lipid A preparations for 4 and 24 hours. All in vitro assays will be run in biological triplicate to increase the scientific rigor of experiments. Activation of inflammatory pathways will be investigated by stimulating THP-1 cells (ATTC), a human monocytic cell line, followed by multiplex analysis of cytokines in the supernatant minimally including TNF-α, IL-8, and IL-6. We will also screen ASLA molecules using THP-1 Dual (Invitrogen) and HEK293 cells transfected with human or mouse MD2/TLR4 (Invitrogen), which have an easily detectable SEAP transcript under the NF-kB promoter to quickly evaluate the potential for these ASLA molecules to inhibit MyD88-NF-kB activation. To account for authentication of key biological resources, all cell lines were purchased from and verified by either ATCC or Invitrogen within the past year and cells used in experiments have been passaged less than 15 times since purchase. Together, these assays will illustrate a lack of inflammatory activation when cells are stimulated with the ASLA molecules. […]
# TLR4 [2] = biological target: T1, TLR4; assay: Competitive inhibition of pro-inflammatory LPS in THP-1 Dual reporter cells; conditions: Se LPS plus ASLA 470
# Protocol: THP-1 Dual cells (Invitrogen) contain an easily detected secreted alkaline phosphatase (SEAP) under the NFκB promoter. E. coli LPS (circles), ALSA 468 (squares), and E. coli LPS+a constant 10 ng/mL ASLA 468 (triangles) are cultured with THP-1 Dual over a 5-log dilution series, activation of NFκB, as measured by SEAP expression, is pictured.
# To investigate the inflammatory properties of BECC synthesized molecules ASLA 468 and 470, THP-1 Dual cells (Invitrogen) were used to screen for NF-κB activation.
# Experimental Setup: Reporter cell line THP-1 Duals (Invitrogen) are incubated for 18 hours over a five-log dose range with either Salmonella enterica (Se) LPS alone, BECC molecule alone (467@26, 468@26, 468@37, 469@26, 470@26, 470@37), or increasing doses of Se with a constant dose of BECC molecule (10 ng/mL). THP-1 Dual cells have a SEAP reporter under the NFκB promoter that is easily quantified in the supernatant of cultured cells. After 18 hours of culture supernatant is removed from the cell culture and SEAP is quantified to indicate the level of NFκB activation/inflammation. OD@620 nm can be directly extrapolated to represent relative amounts of NFκB activation. […] Mean±SD of duplicate samples is graphed for each data point.
# T1 sequence (O00206 24-839): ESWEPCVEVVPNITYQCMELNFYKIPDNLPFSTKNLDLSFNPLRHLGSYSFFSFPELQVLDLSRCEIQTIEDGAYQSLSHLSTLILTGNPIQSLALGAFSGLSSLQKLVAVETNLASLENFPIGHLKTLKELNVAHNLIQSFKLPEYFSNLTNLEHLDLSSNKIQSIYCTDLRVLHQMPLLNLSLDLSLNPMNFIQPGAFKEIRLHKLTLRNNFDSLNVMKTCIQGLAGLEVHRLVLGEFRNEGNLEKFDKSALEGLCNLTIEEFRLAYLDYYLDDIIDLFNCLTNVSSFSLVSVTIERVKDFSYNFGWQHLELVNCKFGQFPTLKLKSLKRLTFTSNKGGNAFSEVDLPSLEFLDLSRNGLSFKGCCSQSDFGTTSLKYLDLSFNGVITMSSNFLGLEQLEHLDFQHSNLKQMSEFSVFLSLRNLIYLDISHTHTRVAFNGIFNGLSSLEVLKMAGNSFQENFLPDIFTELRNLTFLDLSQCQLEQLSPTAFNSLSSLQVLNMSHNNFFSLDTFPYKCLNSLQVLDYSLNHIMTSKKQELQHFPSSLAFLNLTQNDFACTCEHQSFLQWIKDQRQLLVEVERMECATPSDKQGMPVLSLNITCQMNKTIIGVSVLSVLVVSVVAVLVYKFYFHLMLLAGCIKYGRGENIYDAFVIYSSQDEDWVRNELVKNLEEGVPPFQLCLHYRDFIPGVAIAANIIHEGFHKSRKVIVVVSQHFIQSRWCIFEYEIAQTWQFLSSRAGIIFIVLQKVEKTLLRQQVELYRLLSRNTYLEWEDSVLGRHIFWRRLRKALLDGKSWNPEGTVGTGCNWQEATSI
# T1 sequence (Q9Y6Y9 17-160 limits assumed): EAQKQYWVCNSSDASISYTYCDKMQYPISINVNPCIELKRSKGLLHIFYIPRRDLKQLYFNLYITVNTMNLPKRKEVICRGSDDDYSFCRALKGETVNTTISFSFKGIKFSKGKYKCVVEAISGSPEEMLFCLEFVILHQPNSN
Structure (SMILES),survival rate (C57BL6 mice; 10 mg/kg given 4 hours after 25 mg/kg Ec LPS),survival rate (C57BL6 mice; 10 mg/kg given simultaneously with 25 mg/kg Ec LPS),pathogenic symptoms (C57BL6 mice; mice injected with ASLA 468 alone),survival (C57BL6 mice; treated 8 hours post-induction),survival (C57BL6 mice; treated 12 hours post-induction),EC50 (TLR4 [1]),"agonist category (full, partial, or weak agonist) for NF-κB activation (TLR4 [1]; five-log dilution series, compared to Ec LPS positive control)",fold increase of the EC50 of Se LPS (TLR4 [2])
CCCCCC/C=C\CCCCCCCC(=O)OC(CCCCCCCCCCC)CC(=O)NC1[C@H](OCC2OC(OP(=O)(O)O)C(NC(=O)CC(O)CCCCCCCCCCC)[C@@H](OC(=O)CC(O)CCCCCCCCCCC)[C@@H]2O)OC(CO)C(O)[C@@H]1OC(=O)CC(CCCCCCCCCCC)OC(=O)CCCCCCCCCCC (some centres unmarked) [ASLA 468],66.6%,100%,no signs of pathogenic symptoms,100%,66.6%,0.0695 µM,,
CCCCCC/C=C\CCCCCCCC(=O)OC(CCCCCCCCCCC)CC(=O)NC1[C@H](OCC2OC(OP(=O)(O)O)C(NC(=O)CC(CCCCCCCCCCC)OC(=O)CCCCCCCCCCCCCCC)[C@@H](OC(=O)CC(O)CCCCCCCCCCC)[C@@H]2O)OC(CO)C(O)[C@@H]1OC(=O)CC(CCCCCCCCCCC)OC(=O)CCCCCCCCCCC (some centres unmarked) [ASLA 470],,,,,,,weak agonists,1.9 fold
